Laboratory results published in US20250026721A1, “COMPOUNDS AND METHODS FOR MODULATING RAS-PI3K” (Vividion Therapeutics, Inc., priority 2023, published 2025).

What was measured:
PIK3CA = biological target: T1, PIK3CA (Homo sapiens, UniProt P42336); test: In vitro ELISA target engagement assay for PIK3CA in Jurkat cellular lysate (competition with PIK3CA Biotin Probe); format: binding; details: 1 hour at rt, then 500 nM PIK3CA Biotin Probe, read-out: Elisa Target Engagement Assay (TE50)
T1 construct: endogenous in cells; host or cells: Jurkat cell lysate
Summary of the method: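 Jurkat lysate from sonicated frozen cells was preincubated 1 h at rt with serially diluted compound up to 200 μM, then labelled 1 h at rt with PIK3CA biotin probe at 500 nM final. Probe-bound PIK3CA was captured on antibody-coated plates and detected with Neutravidin-HRP luminescence; TE50 derived from the dose response.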

PIK3CA_C242 = biological target: T2, PIK3CA_C242 (Homo sapiens, UniProt P42336); test: Proteomic TE50 (IA-DTB / TMT mass spectrometry) in Jurkat cell lysate; format: binding; details: 1 hour at rt, 7-point dose response
T2 construct: endogenous in cells; host or cells: Jurkat cell lysate
Summary of the method: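 Jurkat lysate (500 μg) treated with compound (7-point, 1:5 dilutions) for 1 h at rt, then labelled with 200 μM IA-DTB for 1 h. After digestion and streptavidin enrichment, the C242 peptide was quantified by targeted MS3 TMT. TE50 was derived from reporter-ion S/N dose-response curves.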

T1 sequence (P42336 whole entry): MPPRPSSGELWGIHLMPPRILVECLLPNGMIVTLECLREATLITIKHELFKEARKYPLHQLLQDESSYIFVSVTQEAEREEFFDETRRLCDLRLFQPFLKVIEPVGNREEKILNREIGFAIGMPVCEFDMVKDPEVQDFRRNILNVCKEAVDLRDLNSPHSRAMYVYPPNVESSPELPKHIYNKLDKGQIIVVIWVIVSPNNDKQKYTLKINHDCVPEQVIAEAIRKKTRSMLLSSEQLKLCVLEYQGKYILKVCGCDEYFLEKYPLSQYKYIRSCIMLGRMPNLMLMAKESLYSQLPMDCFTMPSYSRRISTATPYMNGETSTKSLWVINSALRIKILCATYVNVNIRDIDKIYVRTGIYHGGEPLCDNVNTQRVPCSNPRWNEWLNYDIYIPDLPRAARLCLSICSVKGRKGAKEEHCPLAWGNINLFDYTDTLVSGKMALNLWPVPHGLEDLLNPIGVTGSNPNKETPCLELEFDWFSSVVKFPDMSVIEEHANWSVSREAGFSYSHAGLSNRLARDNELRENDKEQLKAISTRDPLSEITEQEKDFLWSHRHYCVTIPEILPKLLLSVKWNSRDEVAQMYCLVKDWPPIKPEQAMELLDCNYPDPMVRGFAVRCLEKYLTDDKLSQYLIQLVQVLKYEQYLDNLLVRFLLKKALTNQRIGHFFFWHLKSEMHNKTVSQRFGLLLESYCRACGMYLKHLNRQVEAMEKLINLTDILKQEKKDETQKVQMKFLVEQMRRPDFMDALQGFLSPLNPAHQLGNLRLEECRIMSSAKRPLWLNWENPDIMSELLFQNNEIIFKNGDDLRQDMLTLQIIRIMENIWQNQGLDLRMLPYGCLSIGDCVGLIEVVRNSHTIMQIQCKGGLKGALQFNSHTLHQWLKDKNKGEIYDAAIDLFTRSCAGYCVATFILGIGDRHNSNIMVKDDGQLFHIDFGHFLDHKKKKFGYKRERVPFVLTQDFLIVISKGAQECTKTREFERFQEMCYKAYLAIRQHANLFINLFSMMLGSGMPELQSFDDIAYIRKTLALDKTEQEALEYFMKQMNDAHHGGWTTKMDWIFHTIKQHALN
T1 sequence (P27986 whole entry partner): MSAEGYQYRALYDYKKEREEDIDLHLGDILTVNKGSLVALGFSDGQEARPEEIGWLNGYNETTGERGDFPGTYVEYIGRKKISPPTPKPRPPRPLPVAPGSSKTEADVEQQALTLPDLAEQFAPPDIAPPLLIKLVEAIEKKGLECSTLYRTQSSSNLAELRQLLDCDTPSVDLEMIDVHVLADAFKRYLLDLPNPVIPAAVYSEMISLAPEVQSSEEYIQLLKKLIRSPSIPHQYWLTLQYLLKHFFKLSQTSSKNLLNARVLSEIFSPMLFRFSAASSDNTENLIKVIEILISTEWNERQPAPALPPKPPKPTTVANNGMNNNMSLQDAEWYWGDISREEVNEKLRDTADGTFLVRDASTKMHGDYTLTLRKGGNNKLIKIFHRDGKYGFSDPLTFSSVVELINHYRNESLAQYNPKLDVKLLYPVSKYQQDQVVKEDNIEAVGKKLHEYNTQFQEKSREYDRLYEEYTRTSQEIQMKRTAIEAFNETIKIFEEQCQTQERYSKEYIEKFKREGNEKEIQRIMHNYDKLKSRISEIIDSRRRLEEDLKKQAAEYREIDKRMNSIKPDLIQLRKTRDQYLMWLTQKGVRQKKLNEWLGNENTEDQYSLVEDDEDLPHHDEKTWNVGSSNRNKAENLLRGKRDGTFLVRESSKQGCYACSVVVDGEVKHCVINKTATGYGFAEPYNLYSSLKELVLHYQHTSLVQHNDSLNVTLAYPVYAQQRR
T2 sequence (P42336 whole entry): as the sequence (P42336 whole entry) above
T2 sequence (P27986 whole entry partner): as the sequence (P27986 whole entry partner) above

SMILES: COc1cccc(-c2cc(Cl)ccc2S(=O)(=O)N2CCC(C)(C(=O)N[C@@H](C)/C=C\S(C)(=O)=O)CC2)c1 [Compound 201, (S,Z)-1-((5-chloro-3′-methoxy-[1,1′-biphenyl]-2-yl)sulfonyl)-4-methyl-N-(4-(methylsulfonyl)but-3-en-2-yl)piperidine-4-carboxamide]
- IC50 (PIK3CA): 350 nM
- IC50 (PIK3CA_C242): 310 nM

SMILES: COc1ccc(Cl)c(-c2cc(N(C)C)ccc2S(=O)(=O)N2CCC(F)(C(=O)N[C@@H](C)/C=C\S(C)(=O)=O)CC2)c1 [Compound 87, (S,Z)-1-((2′-chloro-5-(dimethylamino)-5′-methoxy-[1,1′-biphenyl]-2-yl)sulfonyl)-4-fluoro-N-(4-(methylsulfonyl)but-3-en-2-yl)piperidine-4-carboxamide]
- IC50 (PIK3CA): 390 nM
- IC50 (PIK3CA_C242): 400 nM

SMILES: C[C@H](/C=C\S(C)(=O)=O)NC(=O)C1(F)CCN(S(=O)(=O)c2ccc(N3CCCC3)cc2-c2ccccc2)CC1 [Compound 117, (R,Z)-4-fluoro-N-(4-(methylsulfonyl)but-3-en-2-yl)-1-((5-(pyrrolidin-1-yl)-[1,1′-biphenyl]-2-yl)sulfonyl)piperidine-4-carboxamide]
- IC50 (PIK3CA): 830 nM
- IC50 (PIK3CA_C242): 810 nM

SMILES: COc1cccc(-c2cc(N(C)C)ccc2S(=O)(=O)N2CCC(F)(C(=O)N[C@@H](C)/C=C\S(C)(=O)=O)CC2)c1 (racemic) [Compound 86, 1-[4-(Dimethylamino)-2-(3-methoxyphenyl)phenyl]sulfonyl-4-fluoro-N-[rac-(Z, 1S)-1-methyl-3-methylsulfonyl-allyl]piperidine-4-carboxamide]
- IC50 (PIK3CA): 60 nM
- IC50 (PIK3CA_C242): 107 nM

SMILES: C[C@@H](/C=C\S(C)(=O)=O)NC(=O)C1(F)CCN(S(=O)(=O)c2ccc(Cl)cc2-c2cccc(OCc3ccccc3Cl)c2)CC1 [Compound 265, (S,Z)-1-((5-chloro-3′-((2-chlorobenzyl)oxy)-[1,1′-biphenyl]-2-yl)sulfonyl)-4-fluoro-N-(4-(methylsulfonyl)but-3-en-2-yl)piperidine-4-carboxamide]
- IC50 (PIK3CA): 330 nM
- IC50 (PIK3CA_C242): 390 nM

SMILES: C[C@H](/C=C\S(C)(=O)=O)NC(=O)C1(F)CCN(S(=O)(=O)c2ccc(OC(F)(F)F)cc2-c2ccccc2Cl)CC1 [Compound 34, (R,Z)-1-((2′-chloro-5-(trifluoromethoxy)-[1,1′-biphenyl]-2-yl)sulfonyl)-4-fluoro-N-(4-(methylsulfonyl)but-3-en-2-yl)piperidine-4-carboxamide]
- IC50 (PIK3CA): 550 nM
- IC50 (PIK3CA_C242): 700 nM

SMILES: C=Cc1ccc(S(=O)(=O)N2CCC(F)(C(=O)N[C@H](C)/C=C\S(C)(=O)=O)CC2)c(-c2ccccc2Cl)c1 [Compound 107, (R,Z)-1-((2′-chloro-5-vinyl-[1,1′-biphenyl]-2-yl)sulfonyl)-4-fluoro-N-(4-(methylsulfonyl)but-3-en-2-yl)piperidine-4-carboxamide]
- IC50 (PIK3CA): 200 nM
- IC50 (PIK3CA_C242): 320 nM

SMILES: C[C@H](/C=C/C(=O)N1CC(F)(F)C1)NC(=O)C1(F)CCN(S(=O)(=O)c2ccc(Br)cc2-c2ccccc2Cl)CC1 [Compound 135, (R,E)-1-((5-bromo-2′-chloro-[1,1′-biphenyl]-2-yl)sulfonyl)-N-(5-(3,3-difluoroazetidin-1-yl)-5-oxopent-3-en-2-yl)-4-fluoropiperidine-4-carboxamide]
- IC50 (PIK3CA): 87.2 nM
- IC50 (PIK3CA_C242): 120 nM

SMILES: COc1ccc(S(=O)(=O)N2CCC(F)(C(=O)N[C@@H](C)/C=C\S(C)(=O)=O)CC2)c(-c2ccccc2OC)c1 [Compound 219, (S,Z)-1-((2′,5-dimethoxy-[1,1′-biphenyl]-2-yl)sulfonyl)-4-fluoro-N-(4-(methylsulfonyl)but-3-en-2-yl)piperidine-4-carboxamide]
- IC50 (PIK3CA): 970 nM
- IC50 (PIK3CA_C242): 1090 nM

SMILES: COc1cc(-c2ccccc2Cl)c(S(=O)(=O)N2CCC(F)(C(=O)N[C@H](C)/C=C\S(C)(=O)=O)CC2)cc1OC [Compound 202, (R,Z)-1-((2′-chloro-4,5-dimethoxy-[1,1′-biphenyl]-2-yl)sulfonyl)-4-fluoro-N-(4-(methylsulfonyl)but-3-en-2-yl)piperidine-4-carboxamide]
- IC50 (PIK3CA): 180 nM
- IC50 (PIK3CA_C242): 180 nM

SMILES: COc1ccc(S(=O)(=O)N2CCC(F)(C(=O)N[C@H](C)/C=C\S(C)(=O)=O)CC2)c(-c2ccc(F)cc2Cl)c1 [Compound 27, (R,Z)-1-((2′-chloro-4′-fluoro-5-methoxy-[1,1′-biphenyl]-2-yl)sulfonyl)-4-fluoro-N-(4-(methylsulfonyl)but-3-en-2-yl)piperidine-4-carboxamide]
- IC50 (PIK3CA): 450 nM
- IC50 (PIK3CA_C242): 430 nM

SMILES: COc1cccc(-c2cc(N(C)C)ccc2S(=O)(=O)N2CCC(F)(C(=O)N[C@@H](C)/C=C\S(C)(=O)=O)CC2)c1Cl [Compound 90, (S,Z)-1-((2′-chloro-5-(dimethylamino)-3′-methoxy-[1,1′-biphenyl]-2-yl)sulfonyl)-4-fluoro-N-(4-(methylsulfonyl)but-3-en-2-yl)piperidine-4-carboxamide]
- IC50 (PIK3CA): 250 nM
- IC50 (PIK3CA_C242): 330 nM

SMILES: COc1cccc(-c2cc(Cl)ccc2S(=O)(=O)N2CCC(C)(C(=O)N[C@H](C)/C=C\S(C)(=O)=O)CC2)c1 [Compound 203, (R,Z)-1-((5-chloro-3′-methoxy-[1,1′-biphenyl]-2-yl)sulfonyl)-4-methyl-N-(4-(methylsulfonyl)but-3-en-2-yl)piperidine-4-carboxamide]
- IC50 (PIK3CA): 980 nM
- IC50 (PIK3CA_C242): 1110 nM

SMILES: COc1ccc(S(=O)(=O)N2CCC(F)(C(=O)N[C@H](C)/C=C\S(C)(=O)=O)CC2)c(-c2ccccc2Cl)c1Cl [Compound 32, 1-((2′,6-dichloro-5-methoxy-[1,1′-biphenyl]-2-yl)sulfonyl)-4-fluoro-N-((R,Z)-4-(methylsulfonyl)but-3-en-2-yl)piperidine-4-carboxamide]
- IC50 (PIK3CA): 930 nM
- IC50 (PIK3CA_C242): 820 nM

SMILES: COc1ccc(S(=O)(=O)N2CCC(F)(C(=O)N[C@H](C)/C=C\S(C)(=O)=O)CC2)c(-c2cccc(Cl)c2)c1 [Compound 22, (R,Z)-1-((3′-chloro-5-methoxy-[1,1′-biphenyl]-2-yl)sulfonyl)-4-fluoro-N-(4-(methylsulfonyl)but-3-en-2-yl)piperidine-4-carboxamide]
- IC50 (PIK3CA): 770 nM
- IC50 (PIK3CA_C242): 785 nM

SMILES: CC[C@@H](/C=C\S(C)(=O)=O)NC(=O)C1(F)CCN(S(=O)(=O)c2ccc(Cl)cc2-c2ccccc2)CC1 [Compound 84, (S,Z)-1-((5-chloro-[1,1′-biphenyl]-2-yl)sulfonyl)-4-fluoro-N-(1-(methylsulfonyl)pent-1-en-3-yl)piperidine-4-carboxamide]
- IC50 (PIK3CA): 510 nM
- IC50 (PIK3CA_C242): 450 nM

SMILES: CCCCOc1cccc(-c2cc(Cl)ccc2S(=O)(=O)N2CCC(F)(C(=O)N[C@@H](C)/C=C\S(C)(=O)=O)CC2)c1 [Compound 13, (S,Z)-1-((3′-butoxy-5-chloro-[1,1′-biphenyl]-2-yl)sulfonyl)-4-fluoro-N-(4-(methylsulfonyl)but-3-en-2-yl)piperidine-4-carboxamide]
- IC50 (PIK3CA): 480 nM
- IC50 (PIK3CA_C242): 340 nM

SMILES: C[C@@H](/C=C\S(C)(=O)=O)NC(=O)C1(F)CCN(S(=O)(=O)c2ccc(Cl)cc2-c2ccccc2Cl)CC1 [Compound 6, (S,Z)-1-((2′,5-dichloro-[1,1′-biphenyl]-2-yl)sulfonyl)-4-fluoro-N-(4-(methylsulfonyl)but-3-en-2-yl)piperidine-4-carboxamide]
- IC50 (PIK3CA): 50 nM
- IC50 (PIK3CA_C242): 26 nM

SMILES: C[C@@H](/C=C\S(C)(=O)=O)NC(=O)C1(F)CCN(S(=O)(=O)c2ccc(Cl)cc2-c2cccc(OCc3cccnc3)c2)CC1 [Compound 260, (S,Z)-1-((5-chloro-3′-(pyridin-3-ylmethoxy)-[1,1′-biphenyl]-2-yl)sulfonyl)-4-fluoro-N-(4-(methylsulfonyl)but-3-en-2-yl)piperidine-4-carboxamide]
- IC50 (PIK3CA): 150 nM
- IC50 (PIK3CA_C242): 210 nM

SMILES: COc1cccc(-c2cc(OC)ccc2S(=O)(=O)N2CCC(F)(C(=O)N[C@@H](C)/C=C\S(C)(=O)=O)CC2)c1 [Compound 5, (S,Z)-1-((3′,5-dimethoxy-[1,1′-biphenyl]-2-yl)sulfonyl)-4-fluoro-N-(4-(methylsulfonyl)but-3-en-2-yl)piperidine-4-carboxamide]
- IC50 (PIK3CA): 200 nM
- IC50 (PIK3CA_C242): 187 nM

SMILES: C[C@H](/C=C\S(C)(=O)=O)NC(=O)C1(F)CCN(S(=O)(=O)c2ccc(N3CCCC3)cc2-c2ccc(F)cc2Cl)CC1 [Compound 123, (R,Z)-1-((2′-chloro-4′-fluoro-5-(pyrrolidin-1-yl)-[1,1′-biphenyl]-2-yl)sulfonyl)-4-fluoro-N-(4-(methylsulfonyl)but-3-en-2-yl)piperidine-4-carboxamide]
- IC50 (PIK3CA): 820 nM
- IC50 (PIK3CA_C242): 63 nM

SMILES: COc1ccc(S(=O)(=O)N2CCC(F)(C(=O)N[C@H](C)/C=C\S(C)(=O)=O)CC2)c(-c2c(F)cccc2Cl)c1 [Compound 30, 1-((2′-chloro-6′-fluoro-5-methoxy-[1,1′-biphenyl]-2-yl)sulfonyl)-4-fluoro-N-((R,Z)-4-(methylsulfonyl)but-3-en-2-yl)piperidine-4-carboxamide]
- IC50 (PIK3CA): 560 nM
- IC50 (PIK3CA_C242): 340 nM

SMILES: CCc1ccc(S(=O)(=O)N2CCC(F)(C(=O)N[C@H](C)/C=C\S(C)(=O)=O)CC2)c(-c2ccccc2Cl)c1 [Compound 111, (R,Z)-1-((2′-chloro-5-ethyl-[1,1′-biphenyl]-2-yl)sulfonyl)-4-fluoro-N-(4-(methylsulfonyl)but-3-en-2-yl)piperidine-4-carboxamide]
- IC50 (PIK3CA): 320 nM
- IC50 (PIK3CA_C242): 210 nM

SMILES: C[C@@H](/C=C\S(C)(=O)=O)NC(=O)C1(F)CCN(S(=O)(=O)c2ccc(Cl)cc2-c2cccc(CCO)c2)CC1 [Compound 220, (S,Z)-1-((5-chloro-3′-(2-hydroxyethyl)-[1,1′-biphenyl]-2-yl)sulfonyl)-4-fluoro-N-(4-(methylsulfonyl)but-3-en-2-yl)piperidine-4-carboxamide]
- IC50 (PIK3CA): 920 nM
- IC50 (PIK3CA_C242): 1530 nM
